Laboratory results reported in patent US12151017B2, “Compositions and methods for hair regrowth” (Nutraceutical Wellness, Inc., priority 2015, dated 2024).

System: hair loss, Stage III Vertex/Stage IV MPHL
Assay: Example 1: single subject given the components cumulatively over 7 months
Format: in vivo, human
Details: taken before the implementations of the disclosure
Procedure: During month 4, the subject was additionally given a daily 250 mg dose of Ashwagandha extracted from Withania somnifera, containing at least 8% withanolide glycosides and 32% oligosaccharides from the roots and leaves (Sensoril®, Natreon, New Brunswick, NJ) for stress associated with their condition and work. […] During month 5, the subject was additionally given a daily dose of Certified Organic saw palmetto extract Standardized 85-95% fatty acids (Valensa Eustis, FL) in the amount of 640 mg a day. […] During month 6, the subject added a 100 mg dose of tocotrienol/tocopherol complex comprising 78% tocotrienols and 22% tocopherols (Tocomax™ 20%, Carotech, Malaysia) a day. […] Lastly, in month 7, They were additionally given approximately 1000 mg of hydrolyzed marine collagen Types I and III (Youtheory, Tustin, CA) and 100 mg of hyaluronic acid (NOW Foods, Bloomingdale, IL).

O=C(O)CCCC[C@@H]1SC[C@@H]2NC(=O)N[C@@H]21 [biotin]
hair outcome of earlier treatments (subject's history): did not result in a noticeable cessation of hair loss or new hair growth

CC(C)(C)NC(=O)[C@H]1CC[C@H]2[C@@H]3CC[C@H]4NC(=O)C=C[C@]4(C)[C@H]3CC[C@]12C [finasteride]
hair outcome of earlier treatments (subject's history): improvement was minimal
